Measured values: the NIST ThermoML archive (doi:10.1021/acs.jced.5b00662)

Assay: xn = mol fraction of the nth substance listed
Details: 100 kPa, Liquid; for speed of sound: Sing-around technique in a fixed-path interferometer; for mass density: Vibrating tube method

COCCOCCO [2-(2-methoxyethoxy)ethanol] + O
Details	mass density [kg/m3]	speed of sound [m/s]
283.15 K, x1 = 0.9373	–	1473.4
283.15 K, x1 = 0.9483	1029.62	1472.6
283.15 K, x1 = 0.9601	1029.5	1471.2
283.15 K, x1 = 0.9674	1029.29	1470.8
283.15 K, x1 = 0.9893	1028.84	1468.4
283.15 K, x1 = 0.9932	1028.73	1468.6
288.15 K, x1 = 0.9373	–	1455.8
288.15 K, x1 = 0.9483	1025.24	1455.1
288.15 K, x1 = 0.9601	1025.13	1453.9
288.15 K, x1 = 0.9674	1024.9	1453.3
288.15 K, x1 = 0.9893	1024.45	1451
288.15 K, x1 = 0.9932	1024.35	1451
293.15 K, x1 = 0.9373	–	1438.7
293.15 K, x1 = 0.9483	1020.87	1438
293.15 K, x1 = 0.9601	1020.74	1436.7
293.15 K, x1 = 0.9674	1020.52	1436.1
293.15 K, x1 = 0.9893	1020.06	1433.7
293.15 K, x1 = 0.9932	1019.95	1433.4
298.15 K, x1 = 0.9373	–	1421.6
298.15 K, x1 = 0.9483	1016.47	1420.8
298.15 K, x1 = 0.9601	1016.34	1419.5
298.15 K, x1 = 0.9674	1016.12	1418.9
298.15 K, x1 = 0.9893	1015.65	1416.4
298.15 K, x1 = 0.9932	1015.55	1416.1
303.15 K, x1 = 0.9373	–	1404.5
303.15 K, x1 = 0.9483	1012.06	1403.6
303.15 K, x1 = 0.9601	1011.93	1402.3
303.15 K, x1 = 0.9674	1011.71	1401.7
303.15 K, x1 = 0.9893	1011.24	1399.1
303.15 K, x1 = 0.9932	1011.12	1398.9
308.15 K, x1 = 0.9373	–	1387.3
308.15 K, x1 = 0.9483	1007.63	1386.5
308.15 K, x1 = 0.9601	1007.5	1385.1
308.15 K, x1 = 0.9674	1007.28	1384.5
308.15 K, x1 = 0.9893	1006.8	1381.9
308.15 K, x1 = 0.9932	1006.69	1381.6
313.15 K, x1 = 0.9373	–	1370.3
313.15 K, x1 = 0.9483	1003.19	1369.4
313.15 K, x1 = 0.9601	1003.06	1368.1
313.15 K, x1 = 0.9674	1002.83	1367.5
313.15 K, x1 = 0.9893	1002.35	1364.9
313.15 K, x1 = 0.9932	1002.24	1364.6
323.15 K, x1 = 0.9373	–	1336.5
323.15 K, x1 = 0.9483	994.251	1335.6
323.15 K, x1 = 0.9601	994.119	1334.3
323.15 K, x1 = 0.9674	993.893	1333.7
323.15 K, x1 = 0.9893	993.397	1330.9
323.15 K, x1 = 0.9932	993.288	1330.3
333.15 K, x1 = 0.9373	–	1302.9
333.15 K, x1 = 0.9483	985.224	1302.1
333.15 K, x1 = 0.9601	985.089	1300.7
333.15 K, x1 = 0.9674	984.87	1300.2
333.15 K, x1 = 0.9893	984.365	1297.3
333.15 K, x1 = 0.9932	984.259	1296.7
343.15 K, x1 = 0.9373	–	1269.6
343.15 K, x1 = 0.9483	976.029	1268.8
343.15 K, x1 = 0.9601	975.972	1267.4
343.15 K, x1 = 0.9674	975.754	1266.9
343.15 K, x1 = 0.9893	975.241	1263.9
343.15 K, x1 = 0.9932	975.146	1263.3
